# Source: US20230085307A1, “PYRIDAZINONE COMPOUND AND HERBICIDE” (NISSAN CHEMICAL CORPORATION, priority 2019, published 2023)
# Columns and labels:
# [1] = test system: Chinese sprangletop; test: Test Example 3: herbicidal effect by foliage application, Wagner pot (Table 18, symbol D); type: in vivo, chinese sprangletop (Leptochloa chinensis)
# How it was run: (§1)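 Plants were sown in alluvial soil held under 0.1–0.5 cm standing water and grown 14 days in a greenhouse at 25–30 °C. An emulsifiable formulation, water-diluted to the set dose, was then sprayed onto the foliage, and effects were scored three weeks later using previously defined criteria.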
# [2] = test system: Japanese bulrush; test: Test Example 2: herbicidal activity, application during weed generation under submerged conditions (Table 17, symbol B); type: in vivo, Japanese bulrush (Schoenoplectus juncoides)
# How it was run: (§2)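 Mixed weed seedlings in alluvial soil under a 4 cm water layer, greenhouse-grown at 25–30° C. Compound given as a diluted emulsion into the floodwater at the 1–2 leaf stage; response graded after three weeks.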
# [3] = test system: late watergrass; test: Test Example 1: herbicidal activity, application before weed generation under submerged conditions (Table 16, symbol A); type: in vivo, late watergrass (Echinochloa oryzicola)
# How it was run: (§3)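 Emulsion formulation, water-diluted to set dose, was put onto the flooded surface (4 cm depth, alluvial soil) the same day weeds were sown and 2.5-leaf rice transplanted. After 3 weeks at 25-30 °C under glass, each species was rated 0 (≤5% kill) to 5 (≥90% kill).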
# [4] = test system: barnyard grass; test: Test Example 3: herbicidal effect by foliage application, Wagner pot (Table 18, symbol H); type: in vivo, barnyard grass (Echinochloa crus-galli)
# How it was run: as §1
# [5] = test system: Japanese bulrush; test: Test Example 1: herbicidal activity, application before weed generation under submerged conditions (Table 16, symbol B); type: in vivo, Japanese bulrush (Schoenoplectus juncoides)
# How it was run: as §3
# [6] = test system: late watergrass; test: Test Example 2: herbicidal activity, application during weed generation under submerged conditions (Table 17, symbol A); type: in vivo, late watergrass (Echinochloa oryzicola)
# How it was run: as §2
# [7] = test system: oval-leafed pondweed; test: Test Example 2: herbicidal activity, application during weed generation under submerged conditions (Table 17, symbol C); type: in vivo, oval-leafed pondweed (Monochoria vaginalis)
# How it was run: as §2
# [8] = test system: oval-leafed pondweed; test: Test Example 1: herbicidal activity, application before weed generation under submerged conditions (Table 16, symbol C); type: in vivo, oval-leafed pondweed (Monochoria vaginalis)
# How it was run: as §3
# [9] = test system: rice flat sedge; test: Test Example 3: herbicidal effect by foliage application, Wagner pot (Table 18, symbol E); type: in vivo, rice flat sedge (Cyperus iria)
# How it was run: as §1
# [10] = amount of applied herbicide 320 g/ha
# [11] = application during weed generation under submerged conditions, amount of applied herbicide 320 g/ha
# [12] = AAH 320 g/ha, application during weed generation, submerged conditions
SMILES,"Herbicidal effect on D (Chinese sprangletop), foliage application [1, 10]","herbicidal effect grade, B: Japanese bulrush [2, 11]","Herbicidal effect, A: late watergrass [3, 10]","Herbicidal effect on H (barnyard grass), foliage application [4, 10]","Herbicidal effect, B: Japanese bulrush [5, 10]","herbicidal effect grade, A: late watergrass [6, 11]","herbicidal effect grade, C: oval-leafed pondweed [7, 11]","Herbicidal effect, C: oval-leafed pondweed [8, 10]","Herbicidal effect on E (rice flat sedge), foliage application [9, 10]","herbicidal effect on D (Chinese sprangletop), rating 0-5 ([1]; 320 g/ha)","herbicidal effect rating, B: Japanese bulrush [2, 12]",Herbicidal effect on A: late watergrass (grade 0-5) ([3]; 320 g/ha applied herbicide),"herbicidal effect on H (barnyard grass), rating 0-5 ([4]; 320 g/ha)",Herbicidal effect on B: Japanese bulrush (grade 0-5) ([5]; 320 g/ha applied herbicide),"herbicidal effect rating, A: late watergrass [6, 12]","herbicidal effect rating, C: oval-leafed pondweed [7, 12]",Herbicidal effect on C: oval-leafed pondweed (grade 0-5) ([8]; 320 g/ha applied herbicide),"herbicidal effect on E (rice flat sedge), rating 0-5 ([9]; 320 g/ha)"
CCCC(=O)Oc1c(C)nn(C)c(=O)c1-c1c(-c2ccc(OCCOC)cc2)oc2ccc(C)cc12 [9-064],1 (Herbicidal rate of 5% or more and less than 20%),3 (Herbicidal rate of 40% or more and less than 70%),5 (Herbicidal rate of 90% or more (almost completely withered)),5 (Herbicidal rate of 90% or more (almost completely withered)),5 (Herbicidal rate of 90% or more (almost completely withered)),4 (Herbicidal rate of 70% or more and less than 90%),4 (Herbicidal rate of 70% or more and less than 90%),5 (Herbicidal rate of 90% or more (almost completely withered)),5 (Herbicidal rate of 90% or more (almost completely withered)),,,,,,,,,
Cc1nn(C)c(=O)c(-c2c(-c3ccc(OCCOC(C)C)cc3)sc3ccccc23)c1O [1-226],,,,,,,,,,5 (Herbicidal rate of 90% or more (almost completely withered)),3 (Herbicidal rate of 40% or more and less than 70%),5 (Herbicidal rate of 90% or more (almost completely withered)),5 (Herbicidal rate of 90% or more (almost completely withered)),4 (Herbicidal rate of 70% or more and less than 90%),5 (Herbicidal rate of 90% or more (almost completely withered)),3 (Herbicidal rate of 40% or more and less than 70%),4 (Herbicidal rate of 70% or more and less than 90%),4 (Herbicidal rate of 70% or more and less than 90%)
